Key:
recombinant apoaequorin [1] = molecular target: T1, recombinant apoaequorin (Aequorea victoria, UniProt P07164); assay: Production of semi-synthetic aequorins and measurement of luminescence activity (Imax, luminescence capacity); conditions: for Ability to act as luminescence substrate for semi-synthetic aequorins (FIG. 1): regeneration 0.5 to 18 hours at 4° C.; for Luminescence activity Imax (%) / Luminescence capacity 60 sec (%): semi-synthetic aequorin, coelenterazine = 100.0; for Luminescence activity Imax (%): Ca2+-triggered, maximum intensity; for Luminescence capacity 60 sec (%): emission integrated for 60 seconds
Protocol: In order to confirm the regeneration time and regeneration efficiency from apoaequorin to the semi-synthetic aequorin, the luminescence activity was assayed at the respective points of the regeneration process (at the respective points of 0.5, 1, 1.5, 2, 3 and 18 hours from the start of regeneration).
Specifically, the luminescence activity described above was measured as follows. The luminescence reaction was started by adding 100 μl of 50 mM Tris-HCl (pH 7.6) containing 50 mM calcium chloride solution to 2 μl of a solution of the semi-synthetic aequorin at each regeneration process. The luminescence activity was measured for 10 seconds with a luminometer Luminescencer-PSN AB2200 (manufactured by Atto Co., Ltd.). The measured values were represented as the maximum intensity (Imax) of luminescence. The emission for 60 seconds was integrated, which was made a luminescence capacity.

recombinant apoaequorin [2] = molecular target: T1, recombinant apoaequorin; assay: Calcium standard curve with semi-synthetic aequorins; assay type: biochemical; design: purchased Chisso Corporation; conditions: Imax versus 10^-3 M to 10^-8 M calcium
Protocol: The dilution series was prepared by the serial process above to prepare standard calcium solution of 10^−3 M to 10^−8 M.
The semi-synthetic aequorin obtained was concentrated using Amicon Ultra-4 (manufactured by Millipore, molecular weight cut off, 10.000).
This semi-synthetic aequorin solution (2.5 mg/ml) was diluted with 20 mM Tris-HCl (pH 7.6) containing 0.1% BSA (manufactured by Sigma), 0.01 mM EDTA and 150 mM NaCl.
The calcium standard solution prepared as described above was dispensed into a 96-well microplate (Nunc #236108) in 50 μl/well, and the semi-synthetic aequorin solution diluted was injected in […]. The luminescence intensity was measured for 60 seconds using a luminescence plate reader Centro LB960 (manufactured by Berthold) and expressed in terms of the maximum luminescence intensity (Imax). The luminescence intensity was measured for each semi-synthetic aequorin in the same fashion. Based on the maximum luminescence intensity (Imax) obtained, the calcium standard curve for each semi-synthetic aequorin was prepared.

recombinant apoaequorin [3] = molecular target: T1, recombinant apoaequorin; assay: Luminescence patterns and half decay time of semi-synthetic aequorins; assay type: biochemical; design: purchased Chisso Corporation; conditions: for Half decay time sec.: semi-synthetic aequorin, time to reach half of the maximum luminescence intensity
Protocol: The dilution was dispensed into a 96-well microplate (Nunc #236108) in 5 μl/well. […] The luminescence patterns for 60 seconds were measured to determine the half decay time of luminescence (time period to reach the half of the maximum luminescence intensity).

recombinant apoaequorin [4] = molecular target: T1, recombinant apoaequorin; assay: Emission spectra of semi-synthetic aequorins by addition of calcium ions; conditions: for Emission spectra of semi-synthetic aequorins compared with known analogs (FIG. 3): compared to h-CTZ and i-CTZ; for Maximum emission wavelength λmax (nm): semi-synthetic aequorin, 22 to 25° C.
Protocol: In a quartz cell with an optical path length of 10 mm, 1 ml of 50 mM Tris-HCl (pH 7.6) containing 1 mM EDTA and 100 μl (100 μg protein) of a solution of the regenerated semi-synthetic aequorin were charged and they were mixed. Subsequently, 100 μl of 50 mM Tris-HCl (pH 7.6) containing 0.1 ml of 10 mM calcium chloride solution was added to the mixture to trigger the luminescence reaction. The spectra were measured on a spectrofluorimeter (FP-6500, manufactured by JASCO Corporation) with the excitation source turned off. The measurement conditions used were as follows: band width, 20 nm; response, 0.5 second and scan speed, 2000 nm/min at 22 to 25° C.

Renilla luciferase = molecular target: T2, Renilla luciferase (Renilla reniformis, UniProt P27652); assay: Substrate specificity, luminescence activity and emission spectra of Renilla luciferase; assay type: biochemical; conditions: for Maximum emission wavelength λmax (nm) / Luminescence activity Imax (%) / Luminescence capacity 10 secs. (%): Renilla luciferase; for Maximum emission wavelength λmax (nm): 22 to 25° C.; for Luminescence activity Imax (%) / Luminescence capacity 10 secs. (%): coelenterazine = 100.0; for Ability to act as substrate for Renilla luciferase: TABLE 4
T2 construct: made in house
T2 sequence (P27652 1-311): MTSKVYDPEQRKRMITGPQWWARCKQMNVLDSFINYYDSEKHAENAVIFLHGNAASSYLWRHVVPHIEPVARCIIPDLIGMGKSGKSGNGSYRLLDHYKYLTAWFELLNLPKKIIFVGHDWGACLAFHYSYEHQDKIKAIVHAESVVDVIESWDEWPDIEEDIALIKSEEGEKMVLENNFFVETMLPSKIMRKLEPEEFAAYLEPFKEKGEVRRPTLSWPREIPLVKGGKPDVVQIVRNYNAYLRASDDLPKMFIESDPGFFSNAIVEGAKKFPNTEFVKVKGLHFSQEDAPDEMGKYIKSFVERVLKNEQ
Text: Res. Commun. (1997) 233: 349-353, which was provided for use.

[5] = molecular target: T3, 19 kDa protein of Oplophorus luciferase (Oplophorus gracilirostris, UniProt Q9GV45); assay: Substrate specificity, luminescence activity and emission spectra of the 19 kDa protein of Oplophorus luciferase; assay type: biochemical, Oplophorus gracilorostris; conditions: for Maximum emission wavelength λmax (nm) / Luminescence activity and/or capacity compared to known h-CTZ / Luminescence capacity 10 secs. (%) / Luminescence activity Imax (%): Oplophorus luciferase; for Maximum emission wavelength λmax (nm): 22 to 25° C.; for Luminescence activity and/or capacity compared to known h-CTZ / Quality as luminescence substrate for Oplophorus luciferase: TABLE 2; for Luminescence capacity 10 secs. (%): emission integrated for 10 seconds; for Luminescence capacity 10 secs. (%) / Luminescence activity Imax (%): coelenterazine = 100.0
T3 construct: made in house

Gaussia luciferase = assay: Substrate specificity, luminescence activity and emission spectra of Gaussia luciferase; conditions: for Luminescence activity Imax (%) / Luminescence capacity 10 secs. (%): Gaussia luciferase, coelenterazine = 100.0
Protocol: The luminescence activity was measured for 10 seconds using a luminometer Luminescencer-PSN AB2200 (manufactured by Atto Co., Ltd.). The luminescence activity was measured 3 times and expressed as the maximum intensity (Imax) of luminescence.

T3 sequence (Q9GV45 28-196): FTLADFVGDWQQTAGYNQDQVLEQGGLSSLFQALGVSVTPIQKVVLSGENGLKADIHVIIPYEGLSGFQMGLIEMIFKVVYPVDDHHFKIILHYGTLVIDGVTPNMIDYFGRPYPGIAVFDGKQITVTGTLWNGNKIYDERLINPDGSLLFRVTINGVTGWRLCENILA
T1 sequence (P07164 other isoform, or with tags, fused parts or gaps with the stated changes): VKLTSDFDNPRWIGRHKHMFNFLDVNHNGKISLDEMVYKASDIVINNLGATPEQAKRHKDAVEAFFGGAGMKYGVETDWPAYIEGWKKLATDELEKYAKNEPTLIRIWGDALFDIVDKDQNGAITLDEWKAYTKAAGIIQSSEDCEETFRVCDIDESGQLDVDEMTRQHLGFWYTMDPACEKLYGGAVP

## O=c1c(Cc2cccc(O)c2)nc2c(Cc3ccccc3)[nH]c(-c3ccc(O)cc3)cn1-2 [3iso-CTZ, 3-isocoelenterazine]
Recombinant apoaequorin [1]
  Ability to act as luminescence substrate for semi-synthetic aequorins (FIG. 1): can be luminescence substrates for semi-synthetic aequorins
Recombinant apoaequorin [2]
  Calcium standard curve with semi-synthetic aequorin (FIG. 4): calcium standard curves can be prepared
Recombinant apoaequorin [3]
  Half decay time sec.: 0.24 s
Recombinant apoaequorin [4]
  Emission spectra of semi-synthetic aequorins compared with known analogs (FIG. 3): exhibit different emission spectra from those of known coelenterazine analogs
  Maximum emission wavelength λmax (nm): 464.0 nm
Renilla luciferase
  Maximum emission wavelength λmax (nm): 472.0 nm
  Luminescence activity Imax (%): 25.7%
  Luminescence capacity 10 secs. (%): 27.5%
  Ability to act as substrate for Renilla luciferase: can be substrates for Renilla luciferase
[5]
  Maximum emission wavelength λmax (nm): 458.0 nm
  Luminescence activity and/or capacity compared to known h-CTZ: high luminescence activity and/or luminescence capacity
  Luminescence capacity 10 secs. (%): 71.8%
  Luminescence activity Imax (%): 78.2%
  Quality as luminescence substrate for Oplophorus luciferase: relatively good luminescence substrates
other
  melting point: 160 to 162 °C (dec.)
Gaussia luciferase
  Luminescence activity Imax (%): 14.3%
  Luminescence capacity 10 secs. (%): 7.4%
Gaussia luciferase; TABLE 3
  Quality as luminescence substrate for Gaussia luciferase: effective luminescence substrates

## Cc1cccc(Cc2nc3c(Cc4ccccc4)[nH]c(-c4ccc(O)cc4)cn-3c2=O)c1 [3me-CTZ, 3me-coelenterazine]
Recombinant apoaequorin [1]
  Ability to act as luminescence substrate for semi-synthetic aequorins (FIG. 1): can be luminescence substrates for semi-synthetic aequorins
Recombinant apoaequorin [2]
  Calcium standard curve with semi-synthetic aequorin (FIG. 4): calcium standard curves can be prepared
Recombinant apoaequorin [3]
  Half decay time sec.: 0.51 s
Recombinant apoaequorin [4]
  Emission spectra of semi-synthetic aequorins compared with known analogs (FIG. 3): exhibit different emission spectra from those of known coelenterazine analogs
  Maximum emission wavelength λmax (nm): 466.0 nm
Renilla luciferase
  Maximum emission wavelength λmax (nm): 471.5 nm
  Luminescence activity Imax (%): 12.7%
  Luminescence capacity 10 secs. (%): 13.1%
[5]
  Maximum emission wavelength λmax (nm): 455.5 nm
  Luminescence activity and/or capacity compared to known h-CTZ: high luminescence activity and/or luminescence capacity
  Luminescence capacity 10 secs. (%): 122.8%
  Luminescence activity Imax (%): 80.0%
  Quality as luminescence substrate for Oplophorus luciferase: relatively good luminescence substrates
other
  melting point: 142 to 145 °C (dec.)
Gaussia luciferase
  Luminescence activity Imax (%): 2.6%
  Luminescence capacity 10 secs. (%): 2.1%

## COc1cccc(Cc2nc3c(Cc4ccccc4)[nH]c(-c4ccc(O)cc4)cn-3c2=O)c1 [3meo-CTZ, 3meo-coelenterazine]
Recombinant apoaequorin [1]
  Ability to act as luminescence substrate for semi-synthetic aequorins (FIG. 1): can be luminescence substrates for semi-synthetic aequorins
Recombinant apoaequorin [2]
  Calcium standard curve with semi-synthetic aequorin (FIG. 4): calcium standard curves can be prepared
Recombinant apoaequorin [3]
  Half decay time sec.: 0.52 s
Recombinant apoaequorin [4]
  Emission spectra of semi-synthetic aequorins compared with known analogs (FIG. 3): exhibit different emission spectra from those of known coelenterazine analogs
  Maximum emission wavelength λmax (nm): 466.0 nm
Renilla luciferase
  Maximum emission wavelength λmax (nm): 473.5 nm
  Luminescence activity Imax (%): 26.0%
  Luminescence capacity 10 secs. (%): 31.6%
  Ability to act as substrate for Renilla luciferase: can be substrates for Renilla luciferase
[5]
  Maximum emission wavelength λmax (nm): 455.5 nm
  Luminescence activity and/or capacity compared to known h-CTZ: high luminescence activity and/or luminescence capacity
  Luminescence capacity 10 secs. (%): 204.7%
  Luminescence activity Imax (%): 189.1%
  Quality as luminescence substrate for Oplophorus luciferase: relatively good luminescence substrates
other
  melting point: 136 to 140 °C (dec.)
Gaussia luciferase
  Luminescence activity Imax (%): 3.8%
  Luminescence capacity 10 secs. (%): 3.1%

## O=c1c(Cc2ccc(C(F)(F)F)cc2)nc2c(Cc3ccccc3)[nH]c(-c3ccc(O)cc3)cn1-2 [cf3-CTZ, cf3-coelenterazine]
Recombinant apoaequorin [1]
  Ability to act as luminescence substrate for semi-synthetic aequorins (FIG. 1): can be luminescence substrates for semi-synthetic aequorins
Recombinant apoaequorin [2]
  Calcium standard curve with semi-synthetic aequorin (FIG. 4): calcium standard curves can be prepared
Recombinant apoaequorin [3]; semi-synthetic aequorin (FIG. 2, TABLE 1)
  Half decay time of luminescence compared with CTZ: longer than CTZ
Recombinant apoaequorin [3]
  Half decay time sec.: 5.95 s
Recombinant apoaequorin [4]
  Emission spectra of semi-synthetic aequorins compared with known analogs (FIG. 3): exhibit different emission spectra from those of known coelenterazine analogs
  Maximum emission wavelength λmax (nm): 473.5 nm
Renilla luciferase
  Maximum emission wavelength λmax (nm): 474.5 nm
  Luminescence activity Imax (%): 0.8%
  Luminescence capacity 10 secs. (%): 0.8%
[5]
  Maximum emission wavelength λmax (nm): 450.5 nm
  Luminescence capacity 10 secs. (%): 68.2%
  Luminescence activity Imax (%): 49.5%
  Quality as luminescence substrate for Oplophorus luciferase: relatively good luminescence substrates
other
  melting point: 157 to 161 °C (dec.)
Gaussia luciferase
  Luminescence activity Imax (%): 0.8%
  Luminescence capacity 10 secs. (%): 0.7%

## Oc1ccc(-c2cn3c(O)c(Cc4ccccc4)nc3c(Cc3ccccc3)n2)cc1 [h-CTZ, h-coelenterazine, reference compound]
Recombinant apoaequorin [1]
  Luminescence activity Imax (%): 87.9%
  Luminescence capacity 60 sec (%): 70.1%
Recombinant apoaequorin [3]
  Half decay time sec.: 0.69 s
Recombinant apoaequorin [4]
  Maximum emission wavelength λmax (nm): 465.5 nm
Renilla luciferase
  Maximum emission wavelength λmax (nm): 472.5 nm
  Luminescence activity Imax (%): 78.6%
  Luminescence capacity 10 secs. (%): 90.3%
[5]
  Maximum emission wavelength λmax (nm): 456.5 nm
  Luminescence capacity 10 secs. (%): 110.2%
  Luminescence activity Imax (%): 68.4%
Gaussia luciferase
  Luminescence activity Imax (%): 5.8%
  Luminescence capacity 10 secs. (%): 7.2%

## coelenterazine [CTZ, reference compound]
Recombinant apoaequorin [1]
  Luminescence activity Imax (%): 100.0%
  Luminescence capacity 60 sec (%): 100.0%
Recombinant apoaequorin [3]
  Half decay time sec.: 0.81 s
Recombinant apoaequorin [4]
  Maximum emission wavelength λmax (nm): 465.5 nm
Renilla luciferase
  Maximum emission wavelength λmax (nm): 472.5 nm
  Luminescence activity Imax (%): 100.0%
  Luminescence capacity 10 secs. (%): 100.0%
[5]
  Maximum emission wavelength λmax (nm): 457.0 nm
  Luminescence capacity 10 secs. (%): 100.0%
  Luminescence activity Imax (%): 100.0%
Gaussia luciferase
  Luminescence activity Imax (%): 100.0%
  Luminescence capacity 10 secs. (%): 100.0%

## et-coelenterazine [et-CTZ]
Recombinant apoaequorin [1]
  Ability to act as luminescence substrate for semi-synthetic aequorins (FIG. 1): can be luminescence substrates for semi-synthetic aequorins
  Luminescence activity Imax (%): 27.3%
  Luminescence capacity 60 sec (%): 44.1%
Recombinant apoaequorin [2]
  Calcium standard curve with semi-synthetic aequorin (FIG. 4): calcium standard curves can be prepared
Recombinant apoaequorin [3]
  Half decay time sec.: 1.21 s
Recombinant apoaequorin [4]
  Emission spectra of semi-synthetic aequorins compared with known analogs (FIG. 3): exhibit different emission spectra from those of known coelenterazine analogs
  Maximum emission wavelength λmax (nm): 472.0 nm
Renilla luciferase
  Maximum emission wavelength λmax (nm): 471.0 nm
  Luminescence activity Imax (%): 0.5%
  Luminescence capacity 10 secs. (%): 0.3%
[5]
  Maximum emission wavelength λmax (nm): 454.0 nm
  Luminescence capacity 10 secs. (%): 39.5%
  Luminescence activity Imax (%): 21.1%
  Quality as luminescence substrate for Oplophorus luciferase: relatively good luminescence substrates
Gaussia luciferase
  Luminescence activity Imax (%): 0.9%
  Luminescence capacity 10 secs. (%): 1.1%

## i-coelenterazine [i-CTZ, reference compound]
Recombinant apoaequorin [1]
  Luminescence activity Imax (%): 5.0%
  Luminescence capacity 60 sec (%): 65.3%
Recombinant apoaequorin [3]
  Half decay time sec.: 11.42 s
Recombinant apoaequorin [4]
  Maximum emission wavelength λmax (nm): 472.0 nm
Renilla luciferase
  Maximum emission wavelength λmax (nm): 473.0 nm
  Luminescence activity Imax (%): 0.2%
  Luminescence capacity 10 secs. (%): 0.3%
[5]
  Maximum emission wavelength λmax (nm): 450.0 nm
  Luminescence capacity 10 secs. (%): 53.8%
  Luminescence activity Imax (%): 32.3%
Gaussia luciferase
  Luminescence activity Imax (%): 0.9%
  Luminescence capacity 10 secs. (%): 1.3%

## n-coelenterazine [n-CTZ, reference compound]
Recombinant apoaequorin [1]
  Luminescence activity Imax (%): 3.6%
  Luminescence capacity 60 sec (%): 24.0%
Recombinant apoaequorin [3]
  Half decay time sec.: 4.71 s
Recombinant apoaequorin [4]
  Maximum emission wavelength λmax (nm): 467.0 nm
